Test results as given in patent US20260198493A1, “HYDRAZIDE COMPOUND AND AGRICULTURAL/HORTICULTURAL FUNGICIDE” (Nippon Soda Co., Ltd., priority 2022, published 2026).

What was measured:
Glomerella cingulata = test: Fungicidal effect test against fungi causing grape ripe rot disease; settings: Colletotrichum gloeosporioides, 72 h, read-out: growth inhibition ratio
Colletotrichum acutatum = test: Fungicidal effect test against fungi causing apple anthracnose; settings: 96 h, read-out: growth inhibition ratio
Botrytis cinerea [1] = assay type: cell-based; settings: 120 h, 25 ppm by volume, Vogel medium, 20° C., five days, dark, read-out: growth inhibition ratio
[2] = test system: Erysiphe graminis f.sp.tritici; test: Control test of wheat powdery mildew disease (sprayed young wheat seedlings); assay type: in vivo; settings: Blumeria graminis, 144 h, 125 ppm by mass spray, six days after inoculation
From the text: [formula] […] Then, the drug liquid was sprayed onto young wheat seedlings cultivated in a nursery pot (variety “Chihoku”, one-to two-leaf stage), and then air-dried. Thereafter, conidiospores of fungi causing wheat powdery mildew disease (Erysiphe graminis f.sp.tritici) were sprinkled on the young wheat seedlings to inoculate them (treated area). As a control, the conidiospores of fungi causing wheat powdery mildew disease (Erysiphe graminis f.sp.tritici) were sprinkled on young wheat seedlings unsprayed with the drug liquid (untreated area). They were left still in a greenhouse at 20° C. Six days after inoculation, leaves of young wheat seedlings were visually observed, and the lesion area ratio was determined to calculate the control value in a similar manner to the previous test.

Botrytis cinerea [3] = test: Control test of cucumber gray mold (sprayed young cucumber seedlings); assay type: in vivo; settings: 96 h, four days after inoculation; for pest or weed control at 125 ppm: 125 ppm by mass spray; for pest or weed control at 25 ppm: 25 ppm by mass spray
Description: Then, the drug liquid was sprayed onto young cucumber seedlings cultivated in a nursery pot (variety “Jihai”-based, cotyledon stage), and then air-dried. […] They were left still in a moist room at 20° C. Four days after inoculation, leaves of the young cucumber seedlings were visually observed, and the control value was calculated from the lesion area ratio in accordance with the following equation. [formula]

Venturia inaequalis = test: Control test of apple scab disease (sprayed young apple seedlings); assay type: in vivo; settings: 125 ppm by mass spray, 12 to 14 days after inoculation
Description: [formula] […] Then, the drug liquid was sprayed onto young apple seedlings cultivated in a nursery pot (variety “Orin”, three-to four-leaf stage), and then air-dried. Thereafter, conidiospores of fungi causing apple scab disease (Venturia inaequalis) were inoculated thereon (treated area). As a control, the conidiospores were inoculated in a similar manner to the above on young apple seedlings unsprayed with the drug liquid (untreated area). They were left still at 20° C. in a moist room with light and dark cycles repeated every 12 hours. 12 Days to 14 days after inoculation, leaves of young apple seedlings were visually observed, and the control value was calculated from the lesion area ratio in accordance with the equation used in the control test of cucumber gray mold.

CC(=O)N(Cc1ccc(Cl)cc1Cl)NC(=O)c1cc(C)nnc1Oc1cccc(C2CC2)c1F [b-13]
≥ 75%: inhibition of growth at 25 ppm (Glomerella cingulata) | inhibition of growth at 25 ppm (Colletotrichum acutatum) | inhibition of growth at 25 ppm (Botrytis cinerea [1]) | pest or weed control at 125 ppm [2] | pest or weed control at 125 ppm (Botrytis cinerea [3])

Cc1ccc(CN(NC(=O)c2cc(C)nnc2Oc2cccc(C3CC3)c2F)S(C)(=O)=O)c(C)c1 [b-26, N′-(3-(3-cyclopropyl-2-fluorophenoxy)-6-methylpyridazine-4-carbonyl)-N-(2,4-dimethylbenzyl)methanesulfonohydrazide]
≥ 75%: inhibition of growth at 25 ppm (Glomerella cingulata) | inhibition of growth at 25 ppm (Colletotrichum acutatum) | inhibition of growth at 25 ppm (Botrytis cinerea [1]) | pest or weed control at 125 ppm (Venturia inaequalis)

COC(=O)N(Cc1ccc(C)cc1C)NC(=O)c1cc(C)nnc1Oc1cccc(Cl)c1Br [b-35]
≥ 75%: inhibition of growth at 25 ppm (Botrytis cinerea [1]) | pest or weed control at 125 ppm (Venturia inaequalis)

Cc1ccc(CN(NC(=O)c2cc(C)nnc2Oc2cccc(C3CC3)c2F)C(=O)C2COC2)c(C)c1 [b-40]
≥ 75%: inhibition of growth at 25 ppm (Glomerella cingulata) | inhibition of growth at 25 ppm (Colletotrichum acutatum) | inhibition of growth at 25 ppm (Botrytis cinerea [1]) | pest or weed control at 125 ppm [2]

CCc1cccc(Oc2nnc(C)cc2C(=O)NN(Cc2ccc(C)cc2C)C(=O)OC)c1 [b-50]
≥ 75%: inhibition of growth at 25 ppm (Glomerella cingulata) | inhibition of growth at 25 ppm (Colletotrichum acutatum) | inhibition of growth at 25 ppm (Botrytis cinerea [1]) | pest or weed control at 125 ppm [2] | pest or weed control at 125 ppm (Botrytis cinerea [3])

CCc1ccc(Oc2nnc(C)cc2C(=O)NN(Cc2ccc(C)cc2C)C(=O)OC)cc1 [b-51]
≥ 75%: inhibition of growth at 25 ppm (Glomerella cingulata) | inhibition of growth at 25 ppm (Colletotrichum acutatum) | inhibition of growth at 25 ppm (Botrytis cinerea [1]) | pest or weed control at 125 ppm [2]

CC(=O)C(=O)N(Cc1ccc(C)cc1C)NC(=O)c1cc(C)nnc1Oc1cccc(C2CC2)c1F [b-58, 3-(3-Cyclopropyl-2-fluorophenoxy)-N′-(2,4-dimethylbenzyl)-6-methyl-N′-(2-oxopropanoyl)pyridazine-4-carbohydrazide]
≥ 75%: inhibition of growth at 25 ppm (Glomerella cingulata) | inhibition of growth at 25 ppm (Colletotrichum acutatum) | inhibition of growth at 25 ppm (Botrytis cinerea [1]) | pest or weed control at 125 ppm [2] | pest or weed control at 125 ppm (Botrytis cinerea [3])

COC(=O)N(Cc1ccc(C)nc1C)NC(=O)c1cc(C)nnc1Oc1cccc(C2CC2)c1F [b-60]
≥ 75%: inhibition of growth at 25 ppm (Glomerella cingulata) | inhibition of growth at 25 ppm (Colletotrichum acutatum) | pest or weed control at 125 ppm [2]

COC(=O)N(Cc1ccc(C)cc1C)NC(=O)c1cc(C)nnc1Oc1ccc(C)c(Br)c1 [b-62]
≥ 75%: inhibition of growth at 25 ppm (Glomerella cingulata) | inhibition of growth at 25 ppm (Colletotrichum acutatum) | inhibition of growth at 25 ppm (Botrytis cinerea [1]) | pest or weed control at 125 ppm [2]

CC(=O)N(Cc1ccc(C)cc1C)NC(=O)c1nc(C)ncc1Oc1cccc(C2CC2)c1F [b-64]
≥ 75%: inhibition of growth at 25 ppm (Glomerella cingulata) | inhibition of growth at 25 ppm (Colletotrichum acutatum) | inhibition of growth at 25 ppm (Botrytis cinerea [1]) | pest or weed control at 125 ppm (Botrytis cinerea [3])

COC(=O)N(Cc1ccc(C)cc1C)NC(=O)c1cc(C)nnc1Oc1cccc(C#N)c1F [b-69]
≥ 75%: inhibition of growth at 25 ppm (Glomerella cingulata) | inhibition of growth at 25 ppm (Colletotrichum acutatum) | inhibition of growth at 25 ppm (Botrytis cinerea [1]) | pest or weed control at 125 ppm [2]

COC(=O)N(Cc1ccc2ccccc2c1)NC(=O)c1cc(C)nnc1Oc1cccc(C2CC2)c1F [b-71]
≥ 75%: inhibition of growth at 25 ppm (Glomerella cingulata) | inhibition of growth at 25 ppm (Colletotrichum acutatum) | inhibition of growth at 25 ppm (Botrytis cinerea [1]) | pest or weed control at 125 ppm (Venturia inaequalis)

COC(=O)N(NC(=O)c1cc(C)nnc1Oc1cccc(C2CC2)c1F)C(C)c1ccc(C)cc1C (centres unmarked) [b-72]
≥ 75%: inhibition of growth at 25 ppm (Glomerella cingulata) | inhibition of growth at 25 ppm (Colletotrichum acutatum) | inhibition of growth at 25 ppm (Botrytis cinerea [1]) | pest or weed control at 25 ppm (Botrytis cinerea [3])

COC(=O)N(Cc1ccc(Cl)nc1Cl)NC(=O)c1cc(C)nnc1Oc1cccc(C2CC2)c1F [b-93, Methyl 2-(3-(3-cyclopropyl-2-fluorophenoxy)-6-methylpyridazine-4-carbonyl)-1-((2,6-dichloropyridin-3-yl)methyl)hydrazine-1-carboxylate]
≥ 75%: inhibition of growth at 25 ppm (Glomerella cingulata) | inhibition of growth at 25 ppm (Colletotrichum acutatum) | inhibition of growth at 25 ppm (Botrytis cinerea [1]) | pest or weed control at 125 ppm [2]

COC(=O)N(Cc1ccc(OC)cc1C)NC(=O)c1nc(C)ncc1Oc1cccc(C2CC2)c1F [b-105]
≥ 75%: inhibition of growth at 25 ppm (Glomerella cingulata) | inhibition of growth at 25 ppm (Colletotrichum acutatum) | inhibition of growth at 25 ppm (Botrytis cinerea [1]) | pest or weed control at 25 ppm (Botrytis cinerea [3])

COC(=O)N(Cc1ccc(C)cc1C)NC(=O)c1nc(C)nnc1Oc1cccc(C2CC2)c1F [b-115]
≥ 75%: inhibition of growth at 25 ppm (Glomerella cingulata) | inhibition of growth at 25 ppm (Colletotrichum acutatum) | inhibition of growth at 25 ppm (Botrytis cinerea [1]) | pest or weed control at 25 ppm (Botrytis cinerea [3])

COC(=O)N(Cc1sc(C)cc1C)NC(=O)c1cc(C)nnc1Oc1cccc(C2CC2)c1F [b-122, Methyl 2-(3-(3-cyclopropyl-2-fluorophenoxy)-6-methylpyridazine-4-carbonyl)-1-((3,5-dimethylthiophen-2-yl)methyl)hydrazine-1-carboxylate]
≥ 75%: inhibition of growth at 25 ppm (Glomerella cingulata) | inhibition of growth at 25 ppm (Colletotrichum acutatum) | inhibition of growth at 25 ppm (Botrytis cinerea [1]) | pest or weed control at 125 ppm (Botrytis cinerea [3])

COC(=O)N(Cc1ccc(C)cc1C)NC(=O)c1cc(N(C)C)ncc1Oc1cccc(C2CC2)c1F [b-125]
≥ 75%: inhibition of growth at 25 ppm (Glomerella cingulata) | inhibition of growth at 25 ppm (Colletotrichum acutatum) | inhibition of growth at 25 ppm (Botrytis cinerea [1]) | pest or weed control at 125 ppm [2]

COC(=O)N(Cc1ccc(OC)cc1C)NC(=O)c1nc(C)nnc1Oc1cccc(C2CC2)c1F [b-130]
≥ 75%: inhibition of growth at 25 ppm (Glomerella cingulata) | inhibition of growth at 25 ppm (Colletotrichum acutatum) | inhibition of growth at 25 ppm (Botrytis cinerea [1]) | pest or weed control at 25 ppm (Botrytis cinerea [3]) | pest or weed control at 125 ppm (Botrytis cinerea [3])

COC(=O)N(Cc1ccc(C)cc1C)NC(=O)c1cc(C)nnc1Oc1cc(C)cc(F)c1 [b-144]
≥ 75%: inhibition of growth at 25 ppm (Glomerella cingulata) | inhibition of growth at 25 ppm (Colletotrichum acutatum) | inhibition of growth at 25 ppm (Botrytis cinerea [1]) | pest or weed control at 125 ppm (Venturia inaequalis)

COC(=O)N(Cc1ccc([N+](=O)[O-])cc1C)NC(=O)c1cc(C)nnc1Oc1cccc(C2CC2)c1F [b-162]
≥ 75%: inhibition of growth at 25 ppm (Glomerella cingulata) | inhibition of growth at 25 ppm (Colletotrichum acutatum) | inhibition of growth at 25 ppm (Botrytis cinerea [1]) | pest or weed control at 125 ppm [2]

COC(=O)N(Cc1ccc(-c2ccc(F)cc2)cc1)NC(=O)c1cc(C)nnc1Oc1cccc(C2CC2)c1F [b-164]
≥ 75%: inhibition of growth at 25 ppm (Glomerella cingulata) | inhibition of growth at 25 ppm (Colletotrichum acutatum) | inhibition of growth at 25 ppm (Botrytis cinerea [1]) | pest or weed control at 125 ppm (Venturia inaequalis)

COC(=O)N(Cc1ccc2ncsc2c1)NC(=O)c1cc(C)nnc1Oc1cccc(C2CC2)c1F [b-173]
≥ 75%: inhibition of growth at 25 ppm (Glomerella cingulata) | inhibition of growth at 25 ppm (Colletotrichum acutatum) | pest or weed control at 125 ppm (Venturia inaequalis)

CSC(=S)N(Cc1ccc(C)cc1C)NC(=O)c1cc(C)nnc1Oc1cccc(C2CC2)c1F [b-174]
≥ 75%: inhibition of growth at 25 ppm (Glomerella cingulata) | inhibition of growth at 25 ppm (Colletotrichum acutatum) | pest or weed control at 125 ppm (Venturia inaequalis)

Cc1ccc(CN(NC(=O)c2cc(C)nnc2Oc2cccc(C3CC3)c2F)C(=O)OCC(F)F)c(C)c1 [b-197]
≥ 75%: inhibition of growth at 25 ppm (Glomerella cingulata) | inhibition of growth at 25 ppm (Colletotrichum acutatum) | inhibition of growth at 25 ppm (Botrytis cinerea [1]) | pest or weed control at 25 ppm (Botrytis cinerea [3]) | pest or weed control at 125 ppm (Botrytis cinerea [3])

COC(=O)N(Cc1ccc(C)cc1C)NC(=O)c1c(Oc2cccc(C3CC3)c2)cnn(C(C)C)c1=O [b-224]
≥ 75%: inhibition of growth at 25 ppm (Glomerella cingulata) | inhibition of growth at 25 ppm (Colletotrichum acutatum) | inhibition of growth at 25 ppm (Botrytis cinerea [1]) | pest or weed control at 125 ppm (Botrytis cinerea [3])
